Results taken from publication PMC11232109, “Synthesis, anticancer evaluation of novel hybrid pyrazole-based chalcones, molecular docking, DNA fragmentation, and gene expression: in vitro studies” (RSC Advances, 2024).

Assays:
Assay type in all cases: cell-based
[1] = test system: MCF7 (human breast adenocarcinoma); assay: MTT assay, MCF7; conditions: Homo sapiens, MTT; for cytotoxicity at 100 µg/mL: at 100 μg ml^−1, 48 hours
Description: (§1) The percentage of the cell viability treated with the newly synthesized compounds was evaluated using MTT assay (3-(4,5-dimethylthiazol-2-yl)-2,5-diphenyl tetrazolium bromide). All the subsequent steps were done in a sterile Laminar flow class II biosafety cabinet (Baker, SG406INT, Sanford, ME, USA). DMEM was used as a suspension medium for breast cancer (MCF7), prostate cancer (PC3), and pancreatic cancer (PACA2), while normal cell line (BJ1) was suspended in DMEM-F12 medium, a 1% antibiotic-antimycotic mixture (10 000 U ml^−1 potassium penicillin, 10 000 μg ml^−1 streptomycin sulfate, and 25 μg ml^−1 amphotericin B), and 1% L-glutamine at 37 °C under 5% CO2.
(§2) Cells were cultured for 10 days and then seeded at a concentration of 10 × 10^4 cells per well in fresh complete growth medium in 96-well microtiter plastic plates at 37 °C for 24 hours under 5% CO2 using a water-jacketed carbon dioxide incubator (Sheldon, TC2323). Media were aspirated, serum-free fresh medium was added, and cells were incubated either alone (negative control) or with different concentrations of the synthesized chalcone derivatives to a final concentration of (100–50–25–12.5–6.25–3.125–0.78 and 1.56 μg ml^−1). After incubation for 48 hours, the medium was aspirated and 40 μl of MTT salt ([…]) was added to each well and incubated for another four hours at 37 °C under 5% CO2. To stop the reaction and dissolve the formed crystals, 200 μl of 10% sodium dodecyl sulfate (SDS) in deionized water was added to each well and incubated overnight at 37 °C.
(§3) The absorbance was then measured at 595 nm and a reference wavelength of 620 nm using a microplate multi-well reader (Bio-Rad Laboratories Inc., model 3350). Statistical significance was tested between the samples and the negative control (cells with vehicle) using an independent t-test using the SPSS 11 program. DMSO was the vehicle used for the dissolution of the synthesized chalcones, and its final concentration on the cells was less than 0.2%. The percentage of change in viability was calculated according to the formula: ((reading of extract/reading of negative control) − 1) × 100. A Probit analysis was carried out for the determination of IC50 using the SPSS 11 program.

[2] = MTT assay, normal cell line BJ1; conditions: human, BJ1 normal skin fibroblasts, at 100 μg ml^−1, 48 hours, read-out: (%) Mortality of BJ1
Description: as §1, §2, §3

[3] = test system: PC3 (prostatic cancer); assay: MTT assay, PC3; conditions: Homo sapiens, 48 h, MTT, read-out: (%) Mortality of PC3; for cytotoxicity at 100 µg/mL: at 100 μg ml^−1, 48 hours
Description: as §1, §2, §3

[4] = test system: PACA2 (pancreatic carcinoma); assay: MTT assay, PACA2; conditions: Homo sapiens, PaCa-2, 48 h, MTT, read-out: (%) Mortality of PACA2; for cytotoxicity at 100 µg/mL: at 100 μg ml^−1, 48 hours
Description: as §1, §2, §3

[5] = test system: BJ1 (normal skin fibroblasts); assay: MTT assay, normal cell line BJ1; conditions: Skin fibroblast, 48 hours
Description: as §1, §2, §3

[6] = MCF7, 48 h, read-out: (%) Mortality of MCF7

SMILES	cytotoxicity at 100 µg/mL [1, 6] [%]	IC50 ([1]; MCF7, 48 hours) [µM]	cytotoxicity at 48 h, 100 μg ml^−1 [2] [%]	cytotoxicity at 100 µg/mL [3] [%]	cytotoxicity at 100 µg/mL [4] [%]	cytotoxicity at 6.25 µg/mL ([1]; MCF7, 48 h, up to 6.25 μg ml^−1, 48 hours, read-out: (%) Mortality of MCF7) [%]	IC50 [5] [µM]	cytotoxicity at 6.25 µg/mL ([3]; up to 6.25 μg ml^−1, 48 hours) [%]	cytotoxicity at 6.25 µg/mL ([4]; up to 6.25 μg ml^−1, 48 hours) [%]
Cc1c(C(=O)C=Cc2ccco2)c(-c2cccs2)nn1-c1ccc([N+](=O)[O-])cc1 [Compound 7a, 3-(Furan-2-yl)-1-(5-methyl-1-(4-nitrophenyl)-3-(thiophen-2-yl)-1H-pyrazol-4-yl)prop-2-en-1-one]	63.5 ± 0.11	72.3 ± 0.34	11.2 ± 0.48	3.8 ± 0.65	17.3 ± 0.13				
Cc1c(C(=O)C=Cc2cccs2)c(-c2cccs2)nn1-c1ccc([N+](=O)[O-])cc1 [Compound 7b, 1-(5-Methyl-1-(4-nitrophenyl)-3-(thiophen-2-yl)-1H-pyrazol-4-yl)-3-(thiophen-2-yl)prop-2-en-1-one]	45.3 ± 0.98			4.2 ± 0.73	32.5 ± 0.74				
Cc1c(C(=O)C=Cc2ccncc2)c(-c2cccs2)nn1-c1ccc([N+](=O)[O-])cc1 [Compound 7c, 1-(5-Methyl-1-(4-nitrophenyl)-3-(thiophen-2-yl)-1H-pyrazol-4-yl)-3-(pyridin-4-yl)prop-2-en-1-one]			52.3 ± 0.76			100	86.2 ± 0.22	100	100
Cc1c(C(=O)C=Cc2nn(-c3ccccc3)cc2-c2ccccc2)c(-c2cccs2)nn1-c1ccc([N+](=O)[O-])cc1 [Compound 9a, 3-(1,4-Diphenyl-1H-pyrazol-3-yl)-1-(5-methyl-1-(4-nitrophenyl)-3-(thiophen-2-yl)-1H-pyrazol-4-yl)prop-2-en-1-one]	42.3 ± 0.21			4.5 ± 0.26	50.3 ± 0.42				
Cc1ccc(-c2cn(-c3ccccc3)nc2C=CC(=O)c2c(-c3cccs3)nn(-c3ccc([N+](=O)[O-])cc3)c2C)cc1 [Compound 9b, 1-(5-Methyl-1-(4-nitrophenyl)-3-(thiophen-2-yl)-1H-pyrazol-4-yl)-3-(1-phenyl-4-(p-tolyl)-1H-pyrazol-3-yl)prop-2-en-1-one]	44.5 ± 0.74			27.2 ± 0.31	39.5 ± 0.91				
COc1ccc(-c2cn(-c3ccccc3)nc2C=CC(=O)c2c(-c3cccs3)nn(-c3ccc([N+](=O)[O-])cc3)c2C)cc1 [Compound 9c, 3-(4-(4-Methoxyphenyl)-1-phenyl-1H-pyrazol-3-yl)-1-(5-methyl-1-(4-nitrophenyl)-3-(thiophen-2-yl)-1H-pyrazol-4-yl)prop-2-en-1-one]	25.2 ± 0.41			2.9 ± 0.57	19.8 ± 0.68				
Cc1c(C(=O)C=Cc2nn(-c3ccccc3)cc2-c2ccc(Cl)cc2)c(-c2cccs2)nn1-c1ccc([N+](=O)[O-])cc1 [Compound 9d, 3-(4-(4-Chlorophenyl)-1-phenyl-1H-pyrazol-3-yl)-1-(5-methyl-1-(4-nitrophenyl)-3-(thiophen-2-yl)-1H-pyrazol-4-yl)prop-2-en-1-one]	44.2 ± 0.33			3.5 ± 0.92	54.5 ± 0.84				
Cc1c(C(=O)C=Cc2nn(-c3ccccc3)cc2-c2cccs2)c(-c2cccs2)nn1-c1ccc([N+](=O)[O-])cc1 [Compound 9f, 1-(5-Methyl-1-(4-nitrophenyl)-3-(thiophen-2-yl)-1H-pyrazol-4-yl)-3-(1-phenyl-4-(thiophen-2-yl)-1H-pyrazol-3-yl)prop-2-en-1-one]	80.4 ± 0.25			4.5 ± 0.23	16.5 ± 0.35				
